Columns and labels:
Wistar rats = experiment: Test II: Neuropathic Pain Model (partial ligation of the sciatic nerve, mechanical hyperalgesia); type: in vivo; details: p.o.; dose necessary to produce 50% reversal of hyperalgesia; rat
Source text: Test II: Neuropathic Pain Model
Hyperalgesia is examined in the model of neuropathic pain Induced by partial ligation of the sciatic nerve as described by Seltzer et al. (1990). Briefly, Wistar rats (120–140 g) are anaesthetised, the left sciatic nerve exposed at mid-thigh level through a small incision and ⅓ to ½ of the nerve thickness tightly ligated within a 7.0 silk suture. The wound is closed with a single muscle suture and skin clips and dusted with Aureomycin antibiotic powder. The animals are allowed to recover and used 12–15 days following surgery.
Mechanical hyperalgesia is assessed by measuring paw withdrawal thresholds to an increasing pressure stimulus placed onto the dorsal surface of the paw using an analgesymeter (Ugo-Basile, Milan) with a cut-off of 250 g. Withdrawal thresholds are measured on both the ipsilateral (ligated) and contralateral (unligated) paw prior to (predose) and then up to 6 h following drug or vehicle administration. Data are expressed as withdrawal threshold (g) and percentage reversal of hyperalgesia calculated according to the following formula: […]
Potency is expressed as D50 value, i.e. the dose of compound necessary to produce 50% reversal of hyperalgesia.

Row | SMILES | melting point [°C] | D50 value in the neuropathic pain model (Wistar rats) [mg/kg]
1 | CCCCCOc1ccc(S(=O)(=O)N2CCCc3ccccc32)c2ccccc12 | 78 to 80 | 
2 | CCCCCOc1ccc(C(=O)c2cccc3ccccc23)c2ccccc12 [Example 1, naphthalen-1-yl-(4-pentyloxy-naphthalen-1-yl)-methanone] |  | 0.18
3 | CCCCCOc1ccc(C(=O)Oc2cccc3ccccc23)c2ccccc12 | 95 to 100 | 
4 | CCCCCOc1ccc([S+]([O-])c2cccc3ccccc23)c2ccccc12 (centres unmarked) | 88 to 91 | 
5 | CCCCCOc1ccc(S(=O)(=O)c2cccc3ccccc23)c2ccccc12 | 143 to 144 | 

— patent US7045533B2, “Naphthalene derivatives” (Novartis AG, priority 2000, dated 2006)
